The source of these data is publication PMC7794472, “Direct entry of cell-penetrating peptide can be controlled by maneuvering the membrane curvature” (Scientific Reports, 2021).

The conditions of data set [1]: 0 °C (SOPC Tc 6 °C, gel state), CLSM observation; cited from earlier work.
Another data set has as its system dermal fibroblasts. The settings on record: cited from earlier work. The text has this:
Hoffmeister Effect of solute[12] is one of the known phenomena to control the hydration level of self-assembled amphiphiles. Chaotropic solutes (water structure breakers) such as sodium thiocyanate (NaSCN) and 1,3-butanediol (1,3-BG) make the membrane curvature positive. On the other hand, kosmotropic solutes (water structure maker ...

On the set-up of data set [2]: method as in doi:10.1246/cl.2012.1078. Conditions: under the tested conditions, regardless of osmotic pressure change; cited from earlier work.
Data set [3] can be described thus: Leakage of internalized FITC-R8 and rhodamine from GUV. Conditions: EPC GUV, L/P = 1000, 10 min, 37 °C, different osmotic pressures, with or without FITC-R8 in outer medium, fluorescence Ex 555/Em 575 nm, n = 5.
Experimental: GUVs were prepared by the freeze-melting and natural swelling method[23]. Lipids dissolved in chloroform were placed into the vials, and then the solvent was evaporated. After being dried in vacuo for 16 h in the dark, lipid films were hydrated with 0.01 mg/mL of Rho/3 M KCl solution to give 20 mM lipid concentration. […] The suspension was vortexed for 1 min. This step (from freezing to vortexing) was repeated six times. It was transferred to a dialysis membrane (UC-8-32-25; Viskase Co. Ltd., Chicago, USA) and dialyzed against 20% PBS for at least two days at room temperature and, the dialysis solution was daily replaced by a new one. In this study, 20% PBS is defined as ‘isotonic solution’ and PBS solution at concentrations less than 20% as ‘hypotonic solution’ and at higher than 20% as ‘hypertonic solution’.
Penetration assay of CPP into GUV was conducted in the same manner previously reported[23]. […] The ratio of penetrated FITC-R8 and Rho leakage ratio was calculated using the following equations:1 P=A/U×100 2 L=IL-Rho/IL-Rho+INL-Rho×100
In Eq. (1), P is the penetrated ratio of FITC-R8 ratio, A is the amount of penetrated FITC-R8 into GUV calculated using the standard curve, and U is the amount of FITC-R8 used in this experiment. In Eq. (2), L is the leaked Rho ratio, and IL-Rho and INL-Rho are the fluorescence intensities of leaked and non-leaked Rho.

`N=C(N)NCCC[C@H](NC(=O)[C@H](CCCNC(=N)N)NC(=O)[C@H](CCCNC(=N)N)NC(=O)[C@H](CCCNC(=N)N)NC(=O)[C@H](CCCNC(=N)N)NC(=O)[C@H](CCCNC(=N)N)NC(=O)[C@H](CCCNC(=N)N)NC(=O)[C@H](CCCNC(=N)N)NC(=O)CCCNC(=S)Nc1ccc2c(c1)C(=O)OC21c2ccc(O)cc2Oc2cc(O)ccc21)C(=O)O` [FITC-R8]: the “cytolysis to SOPC GUV” value in data set [1] was “no cytolysis”. In addition, the “cell viability with chaotropic solutes (NaSCN, 1,3-BG)” value in the data set with dermal fibroblasts is “without interfering with cell viability”.

As to fluorescein isothiocyanate [FITC], in data set [2], the “permeation through the membrane into the cytosol” value is “could not permeate through the membrane”.

For `CCN(CC)c1ccc2c(-c3ccccc3C(=O)O)c3ccc(=[N+](CC)CC)cc-3oc2c1` [rhodamine, Rhodamine B], the “leakage of rhodamine pre-encapsulated in the GUV” value in data set [3] is “very low and consistent”.
